Measurements from patent US4174391A, “Spiramycin esters” (May & Baker Limited, priority 1976, dated 1979).
Values after ≈ are worked out from the molar mass of the structure shown. Structures can show the parent of a compound that is named as a salt.

Assays:
[1] = test system: Escherichia coli B (Ennis); test: In vitro minimum inhibitory concentration, E. coli B (Ennis) (Test 3); type: cell-based; settings: tryptone soya broth, approximately 10^5 organisms per tube, 37° C.; for MIC: Escherichia coli
Experimental: (§1) For each test compound, a range of concentrations in tryptone soya broth was prepared. Each test-tube containing a different concentration of the test compound within the range was inoculated with the test organism selected from Staphylococcus aureus (Oxford) or Escherichia coli B (Ennis) (approximately 10^5 organisms per tube) and after incubation at 37° C., the lowest concentration of test compound within the range required to prevent the growth of the test organism was recorded as the minimum inhibitory concentration for that compound and that organism.

[2] = test system: Staphylococcus aureus Smith; test: Mouse treated orally, Staphylococcus aureus Smith infection (Test 1); settings: 168 h, oral, dosed 1, 4, 24, 30 and 48 hours after infection, observed seven days, test compound, read-out: In vivo CD50 (oral)
Experimental: Mice were injected intra-peritoneally with Staphylococcus aureus Smith suspended in mucin (0.5 ml). This infection represented approximately 100 times the minimum dose calculated to kill 100% of mice. The mice were each treated orally with 16, 31, 62.5, 125 or 250 mg/kg animal body weight doses of a compound of general formula I. Each mouse was dosed 1, 4, 24, 30 and 48 hours after infection, with the selected dose.
(§2) The term "CD50" means the dose calculated to cure 50% of the mice treated.

[3] = test system: Staphylococcus aureus (Oxford); test: In vitro minimum inhibitory concentration, S. aureus (Oxford) (Test 3); type: cell-based; settings: tryptone soya broth, approximately 10^5 organisms per tube, 37° C.; for MIC: Staphylococcus aureus
Experimental: as §1

[4] = test system: Staphylococcus aureus Smith; test: Mouse treated subcutaneously, Staphylococcus aureus Smith infection (Test 2); type: in vivo; settings: sc, 168 h, read-out: CD50 (subcutaneous)
Experimental: as §2
Mice were infected intra-peritoneally with Staphylococcus aureus Smith [approximately 100 times the minimum dose lethal to 100% of mice infected] suspended in mucin (0.5 ml).
The results obtained from a compound of general formula I were compared with the results obtained from spiramycin I used as a standard compound.

Mouse oral toxicity = settings: in vivo
Experimental: Mice were each treated orally with one of the compounds of general formula I, and they were observed during the next 3 days.
The LD50 figures obtained (doses lethal to 50% of mice treated) are shown in Table II, expressed in mg/kg animal body weight. None of the mice died during the experiment even at doses of 1000 mg/kg animal body weight.

Compound | MIC [1] [µg/mL] | ED50 [2] [mg/kg] | MIC [3] [µg/mL] | ED50 ([4]; mouse, subcutaneous, 1, 4, 24, 30 and 48 hours after infection, observed seven days) [mg/kg] | LD50 at 72 h (Mouse oral toxicity) [mg/kg] | In vitro minimum inhibitory concentration, Escherichia coli B (Ennis) [1] [µg/mL] | In vitro minimum inhibitory concentration, S. aureus (Oxford) [3] [µg/mL] | ED50 [4] [mg/kg]
COC1C(O)CC(=O)OC(C)C/C=C/C=C/C(OC2CCC(N(C)C)C(C)O2)C(C)CC(CC=O)C1OC1OC(C)C(OC2CC(C)(O)C(O)C(C)O2)C(N(C)C)C1OC(=O)CCC(=O)OC(C)C (stereo not drawn) [O, 2'-isopropyl succinate of spiramycin I] | 125 | 96 | 1.25 |  |  |  |  | 
COC1C(O)CC(=O)OC(C)C/C=C/C=C/C(OC2CCC(N(C)C)C(C)O2)C(C)CC(CC=O)C1OC1OC(C)C(OC2CC(C)(O)C(O)C(C)O2)C(N(C)C)C1OC(=O)CCC(=O)OC(C)(C)C (stereo not drawn) [N, 2'-tertiary-butyl succinate of spiramycin I] | 125 | 130 | 2.5 |  |  |  |  | 
COC1C(O)CC(=O)OC(C)C/C=C/C=C/C(OC2CCC(N(C)C)C(C)O2)C(C)CC(CC=O)C1OC1OC(C)C(OC2CC(C)(O)C(O)C(C)O2)C(N(C)C)C1OC(=O)CCC(=O)Oc1ccccc1 (stereo not drawn) [K, 2'-phenyl succinate of spiramycin I] | 250 | 76 | 2.5 |  |  |  |  | 
COC(=O)CC(C)C(=O)OC1C(OC2C(CC=O)CC(C)C(OC3CCC(N(C)C)C(C)O3)/C=C/C=C/CC(C)OC(=O)CC(O)C2OC)OC(C)C(OC2CC(C)(O)C(O)C(C)O2)C1N(C)C (stereo not drawn) [Compound L, 2'-methyl (RS)-(3-methyl)succinate of spiramycin I] | 250 (≈ 257 µM) | 58 | 2.5 (≈ 2.57 µM) |  |  |  |  | 
COC(=O)/C=C/C(=O)OC1C(OC2C(CC=O)CC(C)C(OC3CCC(N(C)C)C(C)O3)/C=C/C=C/CC(C)OC(=O)CC(O)C2OC)OC(C)C(OC2CC(C)(O)C(O)C(C)O2)C1N(C)C (stereo not drawn) [F, 2'-methyl fumarate of spiramycin I] | 250 | 125 | 2.5 |  |  |  |  | 
COC1C(O)CC(=O)OC(C)C/C=C/C=C/C(OC2CCC(N(C)C)C(C)O2)C(C)CC(CC=O)C1OC1OC(C)C(OC2CC(C)(O)C(O)C(C)O2)C(N(C)C)C1OC(=O)CCC(=O)OCCc1ccccc1 (stereo not drawn) [M, 2'-(2-phenylethyl) succinate of spiramycin I] | 250 | 64 | 2.5 |  |  |  |  | 
COC1C(O)CC(=O)OC(C)C/C=C/C=C/C(OC2CCC(N(C)C)C(C)O2)C(C)CC(CC=O)C1OC1OC(C)C(OC2CC(C)(O)C(O)C(C)O2)C(N(C)C)C1OC(=O)CCC(=O)OC1CCCCC1 (stereo not drawn) [H, 2'-cyclohexyl succinate of spiramycin I] | 250 | 67 | 2.5 |  |  |  |  | 
CCOC(=O)CCC(=O)OC1C(OC2C(CC=O)CC(C)C(OC3CCC(N(C)C)C(C)O3)/C=C/C=C/CC(C)OC(=O)CC(O)C2OC)OC(C)C(OC2CC(C)(O)C(O)C(C)O2)C1N(C)C (stereo not drawn) [A, 2'-ethyl succinate of spiramycin I] | 62 | 88 | 1.25 | 17.5 | > 1000 |  |  | 
COC(=O)CCC(=O)OC1C(OC2C(CC=O)CC(C)C(OC3CCC(N(C)C)C(C)O3)/C=C/C=C/CC(C)OC(=O)CC(O)C2OC)OC(C)C(OC2CC(C)(O)C(O)C(C)O2)C1N(C)C (stereo not drawn) [C, 2'-methyl succinate of spiramycin I] | 250 | 62 | 2.5 |  |  |  |  | 
Spiramycin [reference compound] |  |  |  |  |  | 62 to 250 | 0.62 to 2.5 | 
COC(=O)CCCC(=O)OC1C(OC2C(CC=O)CC(C)C(OC3CCC(N(C)C)C(C)O3)/C=C/C=C/CC(C)OC(=O)CC(O)C2OC)OC(C)C(OC2CC(C)(O)C(O)C(C)O2)C1N(C)C (stereo not drawn) [E, 2'-methyl glutarate of spiramycin I] | 125 (≈ 129 µM) | 125 | 2.5 (≈ 2.57 µM) |  |  |  |  | 
CCOC(=O)CC(=O)OC1C(OC2C(CC=O)CC(C)C(OC3CCC(N(C)C)C(C)O3)/C=C/C=C/CC(C)OC(=O)CC(O)C2OC)OC(C)C(OC2CC(C)(O)C(O)C(C)O2)C1N(C)C (stereo not drawn) [J, 2'-ethyl malonate of spiramycin I] | 250 (≈ 261 µM) | 120 | 5 (≈ 5.22 µM) |  |  |  |  | 
CCOC(=O)CCCC(=O)OC1C(OC2C(CC=O)CC(C)C(OC3CCC(N(C)C)C(C)O3)/C=C/C=C/CC(C)OC(=O)CC(O)C2OC)OC(C)C(OC2CC(C)(O)C(O)C(C)O2)C1N(C)C (stereo not drawn) [B, 2'-ethyl glutarate of spiramycin I] | 62 (≈ 62.9 µM) | 135 | 1.25 (≈ 1.27 µM) |  | > 1000 |  |  | 
CCCOC(=O)CCC(=O)OC1C(OC2C(CC=O)CC(C)C(OC3CCC(N(C)C)C(C)O3)/C=C/C=C/CC(C)OC(=O)CC(O)C2OC)OC(C)C(OC2CC(C)(O)C(O)C(C)O2)C1N(C)C (stereo not drawn) [D, 2'-propyl succinate of spiramycin I] | 250 | 90 | 2.5 |  |  |  |  | 
COC1C(O)CC(=O)OC(C)C/C=C/C=C/C(OC2CCC(N(C)C)C(C)O2)C(C)CC(CC=O)C1OC1OC(C)C(OC2CC(C)(O)C(O)C(C)O2)C(N(C)C)C1O (stereo not drawn) [Spiramycin I, spiramycin I, reference compound] |  |  |  |  |  |  |  | 5.8
COC1C(O)CC(=O)OC(C)C/C=C/C=C/C(OC2CCC(N(C)C)C(C)O2)C(C)CC(CC=O)C1OC1OC(C)C(OC2CC(C)(O)C(O)C(C)O2)C(N(C)C)C1OC(=O)CCC(=O)SC (stereo not drawn) [G, 2'-S-methyl thiosuccinate of spiramycin I] | 500 (≈ 514 µM) | 114 | 2.5 (≈ 2.57 µM) |  |  |  |  | 
